Data set [1] deals with T1, human amylin 3(a) receptor (human calcitonin receptor + RAMP-3) (Homo sapiens, UniProt O60896+P30988).
T1 construct: expressed in transfected cells; CRE-luciferase reporter
T1 sequence (P30988 25-474): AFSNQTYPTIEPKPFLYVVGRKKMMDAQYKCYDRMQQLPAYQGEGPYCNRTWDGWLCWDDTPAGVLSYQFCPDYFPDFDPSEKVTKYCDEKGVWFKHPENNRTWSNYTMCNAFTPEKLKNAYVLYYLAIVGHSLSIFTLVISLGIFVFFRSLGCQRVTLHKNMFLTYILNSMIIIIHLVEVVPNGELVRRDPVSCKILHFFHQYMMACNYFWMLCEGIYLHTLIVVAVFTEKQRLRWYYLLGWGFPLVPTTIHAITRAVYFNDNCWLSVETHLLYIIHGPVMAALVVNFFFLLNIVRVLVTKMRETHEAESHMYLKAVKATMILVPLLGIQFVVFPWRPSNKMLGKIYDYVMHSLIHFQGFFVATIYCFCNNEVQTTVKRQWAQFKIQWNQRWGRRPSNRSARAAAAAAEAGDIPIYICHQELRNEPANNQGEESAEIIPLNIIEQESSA
T1 sequence (O60896 24-148 partner): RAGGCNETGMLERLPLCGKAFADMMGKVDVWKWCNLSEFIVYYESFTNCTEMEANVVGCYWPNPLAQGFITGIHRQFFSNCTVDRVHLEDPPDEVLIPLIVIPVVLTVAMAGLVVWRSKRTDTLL
As to the kind of experiment: Assay (II)a functional assay, human amylin receptor (CRE luciferase reporter in BHK cells). The format is cell-based. From the text:
1. Luciferase Assay Outline
Activation of calcitonin and amylin (coexpression of calcitonin receptor and receptor activity modifying proteins (RAMP)) receptors lead to increased intracellular concentrations of cAMP. Consequently, transcription is activated by promoters containing multiple copies of the cAMP response element (CRE). It is thus possible to measure amylin activity by the use of a CRE luciferase reporter gene introduced into BHK cells also expressing calcitonin or amylin receptors.
A BHK570 cell line was stably transfected with the human calcitonin receptor and a CRE-responsive luciferase reporter gene. The cell line was further transfected with RAMP-3, using standard methods. This turns the calcitonin receptor into an amylin 3(a) receptor. Methotrexate, Neomycin, and Hygromycin are selection markers for luciferase, the calcitonin receptor, and RAMP-3, respectively.
To perform activity assays, BHK calcitonin (a) receptor- or amylin 3(a)-receptor/CRE-luc cells were seeded in white 96 well culture plates at a density of about 20.000 cells/well. […] After incubation overnight at 37° C. and 5% CO2, the growth medium was replaced by 50 μl/well assay medium (DMEM (without phenol red), Glutamax™, 10% FBS, and 10 mM Hepes, pH 7.4). Further, 50 μl/well of standard or sample in assay buffer were added. After 3 hours incubation at 37° C. and 5% CO2, the assay medium with standard or sample were removed and replaced by 100 μl/well PBS. Further, 100 μl/well LucLite™ was added. The plates were sealed and incubated at room temperature for 30 minutes. Finally, luminescence was measured on a TopCounter (Packard) in SPC (single photon counting) mode.
On the technique in general: Reporter assays use an easily measured gene product as a stand-in for the process of interest.

Data set [2] in a line: Assay (III) ThT fibrillation assay for physical stability. It counts as physicochemical. A digest of the protocol:
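Freshly prepared, pH-adjusted formulations with 1 μM ThT incubated at 37 °C under 960 rpm orbital shaking (1 mm), fluorescence (ex 444, em 485 nm) read every 20 min. […] Peptide content before and after measured by reverse-phase HPLC against pramlintide standard.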

Data on one compound can be found in patent publication US8741836B2, “Polypeptides” (Novo Nordisk A/S, priority 2011, dated 2014).

Read-outs that look alike come from different tables or passages of the source. Starred links: 1 amine or outer side, 2 acyl side, 3 side chain; linkers in the order of their positions; H or OH if unused. Positions of bridges follow the written chain, without caps; N, C: chain ends. Residues, ends and D or L forms follow the SMILES beside them. Groups on a side chain read outwards from the residue. *: point of attachment. C18 diacid = O=C(O)CCCCCCCCCCCCCCCCC(=O)*; γGlu = O=C(O)[C@H](CCC(=O)[*:2])N[*:1]; AEEA = NCCOCCOCC(=O)O

For orientation: EC50 means the concentration giving half of the maximal effect. For the compound `CC[C@H](C)[C@H](NC(=O)[C@@H]1CCCN1C(=O)CNC(=O)[C@H](Cc1ccccc1)NC(=O)[C@H](CC(N)=O)NC(=O)[C@H](CCCCNC(=O)COCCOCCNC(=O)COCCOCCNC(=O)CC[C@H](NC(=O)CCCCCCCCCCCCCCCCC(=O)O)C(=O)O)NC(=O)[C@H](CO)NC(=O)[C@H](CO)NC(=O)[C@H](Cc1c[nH]cn1)NC(=O)[C@H](Cc1c[nH]cn1)NC(=O)[C@H](CC(C)C)NC(=O)[C@H](Cc1ccccc1)NC(=O)[C@H](CCC(=O)O)NC(=O)[C@H](C)NC(=O)[C@H](CC(C)C)NC(=O)[C@H](CCCNC(=N)N)NC(=O)[C@H](CCC(N)=O)NC(=O)[C@@H](NC(=O)[C@H](C)NC(=O)[C@@H]1CSSC[C@H](NC(=O)[C@@H](N)CCCCN)C(=O)N[C@@H](CC(N)=O)C(=O)N[C@@H]([C@@H](C)O)C(=O)N[C@@H](C)C(=O)N[C@@H]([C@@H](C)O)C(=O)N1)[C@@H](C)O)C(=O)N[C@@H](CC(C)C)C(=O)N1CCC[C@H]1C(=O)N1CCC[C@H]1C(=O)N[C@H](C(=O)N[C@@H](CC(N)=O)C(=O)N[C@H](C(=O)NCC(=O)N[C@@H](CO)C(=O)N[C@@H](CCC(=O)O)C(=O)N[C@H](C(=O)N[C@@H](Cc1ccc(O)cc1)C(N)=O)[C@@H](C)O)C(C)C)[C@@H](C)O` [Example 74, N-epsilon21-[2-(2-{2-[2-(2-{2-[(S)-4-Carboxy-4-(17-carboxyheptadecanoylamino)butyrylamino]ethoxy}ethoxy)acetylamino]ethoxy}ethoxy)acetyl]-[Glu14,His17,Lys21,Glu35]-pramlintide] (H-KCNTATCATQRLAEFLHHSSK([AEEA-AEEA-γGlu-C18 diacid])NFGPILPPTNVGSETY-NH2; disulfide 2-7 (inferred); N-terminus and C-terminus assumed), the EC50 in data set [1] stood at 0.184 nM; in data set [1] (Table 4), 0.184 nM; in data set [1] (Table 5) it was 0.184 nM; in data set [1] (Table 6, human amylin receptor) it was 0.184 nM; in data set [1] (Table 7, human amylin receptor) it was 0.184 nM; in data set [1] (Table 8, human amylin receptor) it was 0.184 nM. The EC50 in data set [1] (Table 11, human amylin receptor) came out at 0.184 nM. Further, in data set [2] (pH 4.0), the “ThT pH 4.0 lag time (physical stability in fibrillogenesis assay)” value is recorded as greater than 45 h. Also, in data set [2] (pH 4.0, ThT fibrillation assay), the “ThT pH 4.0 lag time” value was greater than 45 h.
